# According to patent US20260327221A1, “INHIBITORS OF CYCLIC GMP-AMP SYNTHASE AND USES THEREOF” (Ventus Therapeutics U.S., Inc., priority 2023, published 2026):
# pIC50: −log10 of the molar value.
# Biological target: hcGAS (Homo sapiens, UniProt Q8N884)
# Experiment: hcGAS LCMS assay (direct measurement of cGAMP production by LC/MS)
# Type: biochemical
# Conditions: 4 h incubation with enzyme and substrates; cGAMP production by LC/MS; class symbols; read-out: hcGAS LCMS IC50
# Method: cGAS catalyzes the cyclization of ATP and GTP to produce cGAMP, which is the activating ligand of STING. Human cGAS (hcGAS) inhibition can thus be quantified by measuring how much cGAMP is formed either indirectly, by monitoring ATP-depletion as in the hcGAS Kinase-Glo assay (as described below), or directly, such as using the hcGAS LCMS assay (as described below).
# 2. hGAS LCMS Assay Conditions
# Compounds were tested for their hcGAS inhibition activity using direct measurement of cGAMP production by LC/MS. Briefly, compounds were incubated with enzyme and substrates for 4 hours (see Table C), before the reaction was stopped with 3 volumes of 70/30 Acetonitrile/H2O mix containing 0.15 uM cGAMP-^13C10^15N5 as internal standard and mixed for 5 mmn. After centrifugation (3700 rpm, […], […]), 100 uL of each reaction was collected and mixed to equal volume of acetonitrile (MeCN). Samples were then analyzed on Qexactive (Column: XBridge BEH Amide Column, 130 Å, 3.5 μm, 3 mm×50 mm. Mobile phase A: 10 mM Ammonium acetate in 95/5 H2O/MeCN (0.5% DMSO), Mobile phase B: MeCN (0.5% DMSO).
# The results of the assay, expressed as IC50 values, are reported in Table D with the following designations: A represents an IC50 value <0.005 μM (with A1 representing an IC50 value <0.0005 μM, A2 representing an IC50 value ≥0.0005 μM and <0.001 μM, and A3 representing an IC50 value ≥0.001 μM and <0.005 μM); B represents an IC50 value ≥0.005 μM and <0.02 μM; C represents an IC50 value ≥0.02 μM and <0.06 μM; and D represents an IC50 value ≥0.06 μM.
# hcGAS, sequence (Q8N884 whole entry): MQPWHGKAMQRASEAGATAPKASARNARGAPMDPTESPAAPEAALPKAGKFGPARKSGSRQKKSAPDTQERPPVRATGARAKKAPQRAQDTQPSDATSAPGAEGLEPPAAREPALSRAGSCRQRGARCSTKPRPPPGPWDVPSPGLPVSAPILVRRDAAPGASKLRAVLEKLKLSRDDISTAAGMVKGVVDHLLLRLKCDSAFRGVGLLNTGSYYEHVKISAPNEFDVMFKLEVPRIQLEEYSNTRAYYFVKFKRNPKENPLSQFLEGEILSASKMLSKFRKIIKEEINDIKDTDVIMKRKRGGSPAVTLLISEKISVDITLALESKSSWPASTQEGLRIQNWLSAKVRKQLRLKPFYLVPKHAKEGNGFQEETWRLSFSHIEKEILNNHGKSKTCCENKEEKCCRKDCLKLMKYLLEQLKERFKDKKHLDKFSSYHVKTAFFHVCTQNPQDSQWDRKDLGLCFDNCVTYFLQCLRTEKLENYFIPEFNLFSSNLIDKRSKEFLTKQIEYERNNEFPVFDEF
row,Compound,pIC50
1,"COc1cccc(OC)c1-c1cc(C(=O)Nc2nnc(-n3nccc3N)s2)oc(=O)c1OCC(CO)N1CCOCC1 (racemic) [Rac-85, N-(5-(5-amino-1H-pyrazol-1-yl)-1,3,4-thiadiazol-2-yl)-4-(2,6-dimethoxyphenyl)-3-(3-hydroxy-2-morpholinopropoxy)-2-oxo-2H-pyran-6-carboxamide]",8.30 to 9.00
2,"COc1cccc(OC)c1-c1cc(C(=O)Nc2nnc(-n3nccc3N)s2)oc(=O)c1OC(CO)CN1CCOCC1 (racemic) [Rac-87, N-(5-(5-amino-1H-pyrazol-1-yl)-1,3,4-thiadiazol-2-yl)-4-(2,6-dimethoxyphenyl)-3-((1-hydroxy-3-morpholinopropan-2-yl)oxy)-2-oxo-2H-pyran-6-carboxamide]",8.30 to 9.00
3,"COCCOc1c(-c2c(Cl)cccc2OC)cc(C(=O)Nc2nnc(-n3nccc3N)s2)oc1=O (single isomer, unassigned) [Compound 15A*, (Ra)—N-(5-(5-amino-1H-pyrazol-1-yl)-1,3,4-thiadiazol-2-yl)-4-(2-chloro-6-methoxyphenyl)-3-(2-methoxyethoxy)-2-oxo-2H-pyran-6-carboxamide]",> 9.30
4,"COCCOc1c(-c2c(Cl)cccc2OC)cc(C(=O)Nc2nnc(-n3nccc3N)s2)oc1=O (single isomer, unassigned) [Compound 15B*, (Sa)-N-(5-(5-amino-1H-pyrazol-1-yl)-1,3,4-thiadiazol-2-yl)-4-(2-chloro-6-methoxyphenyl)-3-(2-methoxyethoxy)-2-oxo-2H-pyran-6-carboxamide]",> 9.30
5,"COCCOc1c(-c2c(C)cccc2C#N)cc(C(=O)Nc2nnc(-n3nccc3N)s2)oc1=O (single isomer, unassigned) [Compound 24A*, (Ra)—N-(5-(5-amino-1H-pyrazol-1-yl)-1,3,4-thiadiazol-2-yl)-4-(2-cyano-6-methylphenyl)-3-(2-methoxyethoxy)-2-oxo-2H-pyran-6-carboxamide]",> 9.30
6,"COCCOc1c(-c2c(C)cccc2C#N)cc(C(=O)Nc2nnc(-n3nccc3N)s2)oc1=O (single isomer, unassigned) [Compound 24B*, (Sa)-N-(5-(5-amino-1H-pyrazol-1-yl)-1,3,4-thiadiazol-2-yl)-4-(2-cyano-6-methylphenyl)-3-(2-methoxyethoxy)-2-oxo-2H-pyran-6-carboxamide]",> 9.30
7,"COc1cccc(OC)c1-c1cc(C(=O)Nc2nnc(-n3nccc3N)s2)oc(=O)c1OC[C@@H]1COCCO1 (single isomer, unassigned) [Compound 43A*]",9.00 to 9.30
8,"COc1cccc(OC)c1-c1cc(C(=O)Nc2nnc(-n3nccc3N)s2)oc(=O)c1OC[C@H]1COCCO1 (single isomer, unassigned) [Compound 43B]",9.00 to 9.30
9,"COc1cccc(OC)c1-c1cc(C(=O)Nc2nnc(-n3nccc3N)s2)oc(=O)c1O[C@@H](C)CO (single isomer, unassigned) [Compound 55A*]",9.00 to 9.30
10,"COc1cccc(OC)c1-c1cc(C(=O)Nc2nnc(-n3nccc3N)s2)oc(=O)c1O[C@H](C)CO (single isomer, unassigned) [Compound 55B*]",9.00 to 9.30
11,"COc1cccc(OC)c1-c1cc(C(=O)Nc2nnc(-n3nccc3N)s2)oc(=O)c1OC1CC(O)C1 (single isomer, unassigned) [Compound 57A, N-(5-(5-amino-1H-pyrazol-1-yl)-1,3,4-thiadiazol-2-yl)-4-(2,6-dimethoxyphenyl)-3-((1,3-trans)-3-hydroxycyclobutoxy)-2-oxo-2H-pyran-6-carboxamide]",9.00 to 9.30
12,"COc1cccc(OC)c1-c1cc(C(=O)Nc2nnc(-n3nccc3N)s2)oc(=O)c1OC1CC(O)C1 (single isomer, unassigned) [Compound 57B, N-(5-(5-amino-1H-pyrazol-1-yl)-1,3,4-thiadiazol-2-yl)-4-(2,6-dimethoxyphenyl)-3-((1,3-cis)-3-hydroxycyclobutoxy)-2-oxo-2H-pyran-6-carboxamide]",> 9.30
13,"COC[C@@H](O)COc1c(-c2c(OC)cccc2OC)cc(C(=O)Nc2nnc(-n3nccc3N)s2)oc1=O (single isomer, unassigned) [Compound 63B*]",9.00 to 9.30
14,"COc1cccc(OC)c1-c1cc(C(=O)Nc2nnc(-n3nccc3N)s2)oc(=O)c1OC[C@H](CO)OC [38A*, (S)-N-(5-(5-amino-1H-pyrazol-1-yl)-1,3,4-thiadiazol-2-yl)-4-(2,6-dimethoxyphenyl)-3-(3-hydroxy-2-methoxypropoxy)-2-oxo-2H-pyran-6-carboxamide]",9.00 to 9.30
15,"COc1cccc(OC)c1-c1cc(C(=O)Nc2nnc(-n3nccc3N)s2)oc(=O)c1OC[C@@H](CO)OC [38B*, (R)-N-(5-(5-amino-1H-pyrazol-1-yl)-1,3,4-thiadiazol-2-yl)-4-(2,6-dimethoxyphenyl)-3-(3-hydroxy-2-methoxypropoxy)-2-oxo-2H-pyran-6-carboxamide]",9.00 to 9.30

# Results, then the compound that gave them:
row,pIC50,Compound
1,9.00 to 9.30,COc1cccc(OC)c1-c1cc(C(=O)Nc2nnc(-n3nccc3N)s2)oc(=O)c1O[C@@H]1CC[C@@H](O)C1 (relative stereo) [64A*/B*]
2,9.00 to 9.30,COc1cccc(OC)c1-c1cc(C(=O)Nc2nnc(-n3nccc3N)s2)oc(=O)c1O[C@@H]1CC[C@H](O)C1 (relative stereo) [64C*/D*]
3,9.00 to 9.30,"COc1cccc(OC)c1-c1cc(C(=O)Nc2nnc(-n3nccc3N)s2)oc(=O)c1O[C@H]1CCC[C@@H]1O (single isomer, unassigned) [71A*]"
4,9.00 to 9.30,"COc1cccc(OC)c1-c1cc(C(=O)Nc2nnc(-n3nccc3N)s2)oc(=O)c1O[C@@H]1CCC[C@H]1O (single isomer, unassigned) [71B*]"
5,8.30 to 9.00,"COc1cccc(OC)c1-c1cc(C(=O)Nc2nnc(-n3nccc3N)s2)oc(=O)c1O[C@@H]1CCC[C@@H](O)C1 (single isomer, unassigned) [109A*]"
6,9.00 to 9.30,"COc1cccc(OC)c1-c1cc(C(=O)Nc2nnc(-n3nccc3N)s2)oc(=O)c1O[C@H]1CCC[C@H](O)C1 (single isomer, unassigned) [109B*]"
7,8.30 to 9.00,"COc1cccc(OC)c1-c1cc(C(=O)Nc2nnc(-n3nccc3N)s2)oc(=O)c1O[C@@H]1CCCC[C@H]1O (single isomer, unassigned) [110A*]"
8,9.00 to 9.30,"COc1cccc(OC)c1-c1cc(C(=O)Nc2nnc(-n3nccc3N)s2)oc(=O)c1O[C@H]1CCCC[C@@H]1O (single isomer, unassigned) [110B*]"
9,9.00 to 9.30,"COc1cccnc1-c1cc(C(=O)Nc2nnc(-n3nccc3N)s2)oc(=O)c1O[C@@H]1CC[C@H](O)C1 (single isomer, unassigned) [111A*]"
10,9.00 to 9.30,"COc1cccnc1-c1cc(C(=O)Nc2nnc(-n3nccc3N)s2)oc(=O)c1O[C@H]1CC[C@@H](O)C1 (single isomer, unassigned) [111B*]"
11,8.30 to 9.00,"COc1cccnc1-c1cc(C(=O)Nc2nnc(-n3nccc3N)s2)oc(=O)c1O[C@@H]1CC[C@@H](O)C1 (single isomer, unassigned) [112A*]"
12,8.30 to 9.00,"COc1cccnc1-c1cc(C(=O)Nc2nnc(-n3nccc3N)s2)oc(=O)c1O[C@H]1CC[C@H](O)C1 (single isomer, unassigned) [112B*]"
13,8.30 to 9.00,"COc1cccnc1-c1cc(C(=O)Nc2nnc(-n3nccc3N)s2)oc(=O)c1O[C@@H]1CCC[C@@H](OC)C1 (single isomer, unassigned) [113A*]"
14,9.00 to 9.30,"COc1cccnc1-c1cc(C(=O)Nc2nnc(-n3nccc3N)s2)oc(=O)c1O[C@H]1CCC[C@H](OC)C1 (single isomer, unassigned) [113B*]"
15,≤ 7.22,"COc1cccnc1-c1cc(C(=O)Nc2nnc(-n3nccc3N)s2)oc(=O)c1O[C@H]1CCC[C@@H](OC)C1 (single isomer, unassigned) [113C*]"
16,7.70 to 8.30,"COc1cccnc1-c1cc(C(=O)Nc2nnc(-n3nccc3N)s2)oc(=O)c1O[C@@H]1CCC[C@H](OC)C1 (single isomer, unassigned) [113D*]"
17,> 9.30,"COc1cccc(Cl)c1-c1cc(C(=O)Nc2nnc(-n3nccc3N)s2)oc(=O)c1OCCO (single isomer, unassigned) [Compound 34B*, (Ra)—N-(5-(5-amino-1H-pyrazol-1-yl)-1,3,4-thiadiazol-2-yl)-4-(2-chloro-6-methoxyphenyl)-3-(2-hydroxyethoxy)-2-oxo-2H-pyran-6-carboxamide]"
18,> 9.30,"COc1cccc(OC)c1-c1cc(C(=O)Nc2nnc(-n3nccc3N)s2)oc(=O)c1O[C@H]1CCOC1 [52A*, (S)-N-(5-(5-amino-1H-pyrazol-1-yl)-1,3,4-thiadiazol-2-yl)-4-(2,6-dimethoxyphenyl)-2-oxo-3-((tetrahydrofuran-3-yl)oxy)-2H-pyran-6-carboxamide]"
19,9.00 to 9.30,"COc1cccc(OC)c1-c1cc(C(=O)Nc2nnc(-n3nccc3N)s2)oc(=O)c1O[C@@H]1CCOC1 [52B*, (R)-N-(5-(5-amino-1H-pyrazol-1-yl)-1,3,4-thiadiazol-2-yl)-4-(2,6-dimethoxyphenyl)-2-oxo-3-((tetrahydrofuran-3-yl)oxy)-2H-pyran-6-carboxamide]"

# Same assay, conditions: hcGAS 0.5 nM; ATP 100 μM; GTP 100 μM; dsDNA 25 nM; pH 7.4; 4 h incubation; read-out: hcGAS inhibition IC50 (activity class, Table D)
row,pIC50,Compound
1,> 9.30,"COCCOc1c(-c2c(C)cccc2C#N)cc(C(=O)Nc2nnc(-n3nccc3N)s2)oc1=O (single isomer, unassigned) [Compound 24A*, (Ra)—N-(5-(5-amino-1H-pyrazol-1-yl)-1,3,4-thiadiazol-2-yl)-4-(2-cyano-6-methylphenyl)-3-(2-methoxyethoxy)-2-oxo-2H-pyran-6-carboxamide]"
